Measured values reported in publication PMC4457900, “Preclinical Pharmacokinetic Studies of the Tritium Labelled D-Enantiomeric Peptide D3 Developed for the Treatment of Alzheimer´s Disease” (PLoS ONE, 2015).
Entries after “also recorded” stand apart in the source; their conditions may differ.

What was measured:
[1] = Proteolytic stability in mouse plasma (TLC, autoradiography); format: in vitro ADME; conditions: freshly prepared mouse plasma, 37°C, 1 μCi (approx. 0.08–0.8 μg) peptide with 1 μl plasma, D3 up to 2 days, L-form 0 and 60 min, 3H-autoradiography
Protocol: In order to study the proteolytic stability of peptides in biological extracts, tritium labelled peptides were incubated with liver microsomes (pooled from mouse (CD-1), Sigma-Aldrich), freshly prepared mouse plasma or extracts of brain, liver and kidney at 37°C for different time periods (from 0 min to 2 days). 1 μCi (approx. 0.08–0.8 μg) radioactive labelled peptide was mixed with 1 μl microsomes stock solution, plasma or organ extracts, respectively (in great excess to peptide). Mixtures containing tritium-labelled peptides were applied onto HPTLC Silica Gel 60 plates (OMNILAB, Essen, Germany) for thin layer chromatography (TLC) with a mobile solvent (2-Butanol/Pyridine/Ammonia(28%)/Water(39/34/10/26)). After development, a phosphor imaging plate for ^3H-autoradiography (FUJIFILM, Tokyo, Japan) was exposed to the TLC plates for 3 days. Images were acquired with a BAS reader and AIDA software (Raytest, Freiburg, Germany). Retardation factor (Rf) of each substance was defined as the ratio of the migration distance of the centre of a separated spot to the migration distance of the solvent front.

[2] = target: T1, human serum albumin (HSA) (Homo sapiens, UniProt P02768); assay: Plasma protein binding, TRANSIL XL kit, HSA; format: in vitro ADME; conditions: 5 μM D3 (with 3H-D3) in PBS, LSC of supernatant, above detection limit of the kit, n = 2
T1 construct: purchased Sovicell GmbH, Leipzig, Germany
Protocol: Plasma protein binding was estimated by incubation of D3 with varying concentrations of protein using TRANSIL^XL binding kits (Sovicell GmbH, Leipzig, Germany). KD values were determined by titrating a constant drug concentration against different concentrations of human serum albumin (HSA) and α1-acid glycoprotein (AGP). Experiments were performed as recommended for the kit. To obtain the desired D3 stock solution of 80 μM, non-radioactively labelled D3 was dissolved in PBS and 5% ^3H-labelled D3 solution was added for detection purposes. A final concentration of 5 μM D3 was applied in the assay. After incubation and centrifugation 15 μl supernatant were taken and scintillation cocktail was added. This was done in triplicate. Radioactivity was then quantified using liquid scintillation counting. After measuring the disintegrations per minute (dpm) of the supernatant containing the unbound peptide, the D3 fraction bound to the titrated protein was calculated and plotted against the protein concentrations. […]
For bioavailability determination, the unbound fraction of D3 (fu) was calculated using the equation below: fu=100*CD3−KD−Cphysiol/2+KD*CD3+(CD3−KD−Cphysiol/2)^2/CD3 (1) For very low D3 concentrations in blood (CD3), Eq (1) can be simplified by Eq (2), where the unbound fraction of D3 can be calculated independently of the applied D3 concentration. […]

Substance: RPRTR-(4,5-^3H-Leu)-HTHRNR [3H-(L)-D3, tritium labelled L-form enantiomer of D3, RPRTR-(4,5-3H-Leu)-HTHRNR]
- proteolytic degradation in plasma [1]: significant degradation already after 60 min; also recorded: Obvious proteolytic degradation

Substance: D3: fully D-enantiomeric peptide identified by mirror-image phage display for binding to Aβ (1–42) (RPRTRLHTHRNR; all residues are D-amino acids (rprtrlhthrnr); tracer form carries 4,5-3H-D-Leu at position 6)
- Kd [2]: > 1400 µM
